Experimental data published in PubChem BioAssay (NCI).
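Five concentrations, 48 hours, 96-well plates. Here, GI50 denotes the concentration required for 50% inhibition of growth. TGI: concentration producing complete growth inhibition.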

What was measured:
Assay in all cases: NCI tumour cell line growth inhibition, 48 h
DMS 114 small cell lung = test system: DMS 114 small cell lung
M19-MEL melanoma = test system: M19-MEL melanoma
DMS 273 small cell lung = test system: DMS 273 small cell lung
LXFL 529 NSCLC = test system: LXFL 529 NSCLC
HOP-18 NSCLC = test system: HOP-18 NSCLC
KM20L2 colon = test system: KM20L2 colon
XF 498 CNS = test system: XF 498 CNS
RXF-631 renal = test system: RXF-631 renal
SN12K1 renal = test system: SN12K1 renal
P388 leukemia = test system: P388 leukemia
P388/ADR leukemia = test system: P388/ADR leukemia
MDA-N = test system: MDA-N

SMILES | TGI (DMS 114 small cell lung) [µM] | TGI (M19-MEL melanoma) [µM] | TGI (DMS 273 small cell lung) [µM] | TGI (LXFL 529 NSCLC) [µM] | TGI (HOP-18 NSCLC) [µM] | TGI (KM20L2 colon) [µM] | TGI (XF 498 CNS) [µM] | TGI (MDA-N) [µM] | further results
C#Cc1c(C)c(/C=C/C(C)=C/C(=O)OC)n(C)c1C | > 100 | > 100 | > 100 | > 100 | > 100 | > 100 | > 100 | – | –
c1ccc2c(c1)oc1ccc3nsnc3c12 | > 100 | > 100 | > 100 | > 100 | > 100 | > 100 | – | – | TGI (RXF-631 renal): > 100 µM
O=S(=O)(NCn1ccc2ccccc21)c1ccccc1 | – | > 100 | > 100 | > 100 | > 100 | > 100 | > 100 | – | TGI (RXF-631 renal): > 100 µM
CC(C)=CCC(OC(=O)C=C(C)C)C1=CC(=O)c2c(O)ccc(O)c2C1=O (centres undefined) | 3.03 | 1.87 | 5.53 | – | 7.58 | 5.64 | 1.74 | – | TGI (SN12K1 renal): 2.93 µM; TGI (P388 leukemia): 2.77 µM; TGI (P388/ADR leukemia): 19.5 µM
c1cncc(CNCc2cccnc2)c1 | – | – | – | – | – | – | – | > 100 | –
COc1cc(C)c(C2NC(=O)c3ccccc3N2)cc1C (centres undefined) | – | – | – | – | – | – | – | 0.128 | –
O=C1C=CC(=O)c2c(O)c(NCCOCCO)c(Cl)c(O)c21 | – | 3.22 | 14.8 | 20.4 | 29.1 | – | – | – | –
CC(=O)[O-].[Mn+3].[O-]c1ccccc1C=NCCNCCN=Cc1ccccc1[O-] | – | > 100 | > 100 | > 100 | > 100 | – | – | – | GI50 (M19-MEL melanoma): > 100 µM; GI50 (DMS 273 small cell lung): > 100 µM; GI50 (LXFL 529 NSCLC): > 100 µM; GI50 (HOP-18 NSCLC): > 100 µM
CC1=Nc2ccccc2/C1=C\c1c(C)[nH]c2ccccc12 | – | – | – | – | – | – | – | 37.4 | –
CC1=Cc2ccc(C)cc2C(=O)C1=O | – | – | – | – | – | – | – | 11.9 | –
O=C1/C(=C/c2ccccc2)CN(C(=O)CCN2CCCC2)C/C1=C\c1ccccc1 | 4.66 | 3.79 | 3.58 | 4.36 | 9.09 | 3.91 | 16.8 | 1.46 | TGI (RXF-631 renal): 13.2 µM
C=C1C(=O)OC2CC(C)C3CC(O)OC(OCC)C3(C)CC12 (centres undefined) | – | – | – | – | – | – | – | 35.7 | –
C=CCC1=C(C)C[C@@H]2CCC(=O)C=C12 | > 100 | > 100 | > 100 | > 100 | – | – | – | – | TGI (RXF-631 renal): > 100 µM
Cc1cccc(C)c1NC(=O)CCc1nc(=S)[nH][nH]1 | > 100 | > 100 | – | > 100 | – | > 100 | > 100 | – | TGI (RXF-631 renal): > 100 µM
CC(=O)O[C@]1(C)OC(=O)[C@@H](CC(C)C)N1[N+](=O)[O-] | > 100 | > 100 | > 100 | > 100 | > 100 | > 100 | – | – | –
CC(=O)OCC(=O)[C@@]12OC(C)(C)O[C@@H]1C[C@H]1[C@@H]3CC(C=O)=C4C=C(OCCCl)CC[C@]4(C)[C@@]3(F)[C@@H](O)C[C@@]12C | > 100 | > 100 | > 100 | – | 87.6 | 38.2 | 35.8 | – | –
CCCC(=O)N[C@H]1C2C3CC4C5CC(C42)C1(C)C53 (some centres undefined) | – | > 100 | > 100 | – | > 100 | > 100 | – | – | –
O=c1ncccn1C1OC(CO)C(O)C1O (centres undefined) | > 100 | > 100 | > 100 | > 100 | > 100 | > 100 | – | – | –
COc1ccc(CCn2c(=O)c3ccccc3n(C)c2=O)cc1 | > 100 | > 100 | – | > 100 | – | > 100 | > 100 | – | –
O=C(O)CCNCCCCNCCC(=O)O | – | – | > 100 | > 100 | > 100 | > 100 | > 100 | – | –
